Read-outs that look alike come from different tables or passages of the source.
Molecular target: SARS-CoV-2 3CLpro (Severe acute respiratory syndrome coronavirus 2, UniProt P0DTD1)
Experiment: biochemical
Assay type: biochemical
Parameters: Replicate_1 / Replicate_2 / mean / mean (LOPAC_screen_w_protease): unit not given here
Conditions: for mean (LOPAC screen with protease) / Replicate_1 (LOPAC screen with protease) / Replicate_2 (LOPAC screen with protease): primary screen at 5 µM; for mean (LOPAC_screen_w_protease) / Replicate_1 (LOPAC_screen_w_protease) / Replicate_2 (LOPAC_screen_w_protease): LOPAC1280 primary screen with protease, 5 µM compound
[1] = sheet LOPAC_screen_w_protease, primary screen with protease, compound at 5 µM, mean of two replicates
[2] = sheet LOPAC_screen_w_protease, primary screen with protease, compound at 5 µM, replicate 1
[3] = sheet LOPAC_screen_w_protease, primary screen with protease, compound at 5 µM, replicate 2
[4] = sheet LOPAC_screen_w_protease, primary screen with protease, 5 µM, mean of two replicates
[5] = sheet LOPAC_screen_w_protease, primary screen with protease, 5 µM, replicate 1
[6] = sheet LOPAC_screen_w_protease, primary screen with protease, 5 µM, replicate 2
[7] = sheet LOPAC_screen_w_protease, primary screen with protease, mean of two replicates
[8] = sheet LOPAC_screen_w_protease, primary screen with protease, replicate 1
[9] = sheet LOPAC_screen_w_protease, primary screen with protease, replicate 2
[10] = sheet LOPAC_screen_w_protease, primary screen of LOPAC1280 at 5 µM with protease, mean of the two replicates
[11] = sheet LOPAC_screen_w_protease, primary screen of LOPAC1280 at 5 µM with protease, replicate 1
[12] = sheet LOPAC_screen_w_protease, primary screen of LOPAC1280 at 5 µM with protease, replicate 2
[13] = sheet LOPAC_screen_w_protease, LOPAC1280 primary screen at 5 µM, with protease, mean of the two replicates
[14] = sheet LOPAC_screen_w_protease, LOPAC1280 primary screen at 5 µM, with protease, replicate 1
[15] = sheet LOPAC_screen_w_protease, LOPAC1280 primary screen at 5 µM, with protease, replicate 2
[16] = sheet LOPAC_screen_w_protease, mean of two replicates
[17] = sheet LOPAC_screen_w_protease, replicate 1
[18] = sheet LOPAC_screen_w_protease, replicate 2

## Cl.NC1(C(=O)O)CCCCC1
[1]
  mean: 2.729
[2]
  Replicate_1: 1.961
[3]
  Replicate_2: 3.496

## Clc1ccc(C(c2ccccc2Cl)C(Cl)Cl)cc1 (centres unmarked)
[4]
  mean: -0.2273
[5]
  Replicate_1: 0.8298
[6]
  Replicate_2: -1.2843

## COc1ccc2c(c1)c(CC(=O)O)c(C)n2Cc1ccc(Cl)cc1
[4]
  mean: 0.3525
[5]
  Replicate_1: -0.9083
[6]
  Replicate_2: 1.613

## COc1ccc2c(c1)c(CC(=O)O)c(C)n2Cc1ccc(F)cc1
[7]
  mean: 2.348
[8]
  Replicate_1: 3.38
[9]
  Replicate_2: 1.3165

## CC1CN(S(=O)(=O)c2cccc3cnccc23)CCN1.Cl.Cl (centres unmarked)
[7]
  mean: 2.412
[8]
  Replicate_1: 3.532
[9]
  Replicate_2: 1.292

## COc1ccc2c(c1)c(CC(=O)O)c(C)n2C(=O)c1ccccc1
[7]
  mean: 2.541
[8]
  Replicate_1: 2.008
[9]
  Replicate_2: 3.073

## CCN(CC)C(C)C(=O)N1c2ccccc2Sc2ccccc21.Cl (centres unmarked)
[1]
  mean: 2.78
[2]
  Replicate_1: 5.208
[3]
  Replicate_2: 0.3523

## CSc1nc(N)c2ncn([C@@H]3O[C@H](COP(=O)([O-])OP(=O)([O-])OP(=O)([O-])[O-])[C@@H](O)[C@H]3O)c2n1.[Na+].[Na+].[Na+].[Na+]
[7]
  mean: 2.299
[8]
  Replicate_1: 2.88
[9]
  Replicate_2: 1.718

## C[N+]1(C)C2CCC1CC(OC(=O)c1c[nH]c3ccccc13)C2.[I-] (centres unmarked)
[10]
  mean: 3.717
[11]
  Replicate_1: 3.9921
[12]
  Replicate_2: 3.441

## Cl.Fc1ccc(C(OCCCc2c[nH]cn2)c2ccc(F)cc2)cc1
[1]
  mean: 2.8
[2]
  Replicate_1: 1.774
[3]
  Replicate_2: 3.825

## Cl.O=C(OC1CCN(CCCl)CC1)C(c1ccccc1)c1ccccc1
[7]
  mean: 2.3143
[8]
  Replicate_1: 3.423
[9]
  Replicate_2: 1.205

## Cc1cccc(C#Cc2ccccc2)n1.Cl
[1]
  mean: 3.1043
[2]
  Replicate_1: 2.241
[3]
  Replicate_2: 3.968

## Cl.Nc1ccn([C@@H]2O[C@H](CO)[C@@H](O)[C@@H]2O)c(=O)n1
[7]
  mean: 2.239
[8]
  Replicate_1: 1.947
[9]
  Replicate_2: 2.5319

## COC(=O)[C@@H](N)Cc1ccc(O)c(O)c1.Cl
[10]
  mean: 3.737
[11]
  Replicate_1: 4.528
[12]
  Replicate_2: 2.946

## CC(=N)NCCC[C@H](N)C(=O)O.Cl
[1]
  mean: 2.835
[2]
  Replicate_1: 2.586
[3]
  Replicate_2: 3.084

## COc1cccc(C(=O)NCCN2CCN(c3ccc(Cl)cc3)CC2)c1
[7]
  mean: 2.269
[8]
  Replicate_1: 1.008
[9]
  Replicate_2: 3.529

## COC(=O)[C@@H](N)CCCN=C(N)N[N+](=O)[O-].Cl
[10]
  mean: 3.268
[11]
  Replicate_1: 2.366
[12]
  Replicate_2: 4.171

## CCCN(CCC)CCc1c[nH]c2ccc(C(N)=O)cc12.O=C(O)/C=C\C(=O)O
[10]
  mean: 3.512
[11]
  Replicate_1: 3.371
[12]
  Replicate_2: 3.653

## C[C@H](O)[C@H](O)[C@H]1CNc2nc(N)[nH]c(=O)c2N1.Cl
[1]
  mean: 3.136
[2]
  Replicate_1: 3.694
[3]
  Replicate_2: 2.577

## CC[C@@H]1Cc2cc(O)ccc2C2=C1c1ccc(O)cc1C[C@H]2CC
[10]
  mean: 3.66
[11]
  Replicate_1: 4.43
[12]
  Replicate_2: 2.89

## Nc1ncnc2c1ncn2[C@@H]1O[C@H](COP(=O)(O)CP(=O)(O)OP(=O)([O-])[O-])[C@H](O)C1O.[Li+].[Li+] (some centres unmarked)
[1]
  mean: 2.729
[2]
  Replicate_1: 1.677
[3]
  Replicate_2: 3.782

## CCCCCCC(C(C)O)n1cnc2c(N)ncnc21.Cl (centres unmarked)
[10]
  mean: 3.427
[11]
  Replicate_1: 4.751
[12]
  Replicate_2: 2.103

## 17alpha-hydroxyprogesterone
[7]
  mean: 2.147
[8]
  Replicate_1: 1.557

## Cl.NCCC[C@](N)(C(=O)O)C(F)F (racemic)
[1]
  mean: 3.129
[2]
  Replicate_1: 3.2986
[3]
  Replicate_2: 2.959

## COC(=O)C(N)Cc1ccc(Cl)cc1.Cl (racemic)
[13]
  mean: 0.6507
[14]
  Replicate_1: 2.428
[15]
  Replicate_2: -1.1263

## CC(N)c1cccc(Cl)c1Cl.Cl (racemic)
[7]
  mean: 2.411
[8]
  Replicate_1: 4.03
[9]
  Replicate_2: 0.7923

## CC(N)(Cc1ccc(O)c(O)c1)C(=O)O (racemic)
[16]
  mean (LOPAC screen with protease): 6.44
[17]
  Replicate_1 (LOPAC screen with protease): 5.736
[18]
  Replicate_2 (LOPAC screen with protease): 7.145

## CCCCCCCCCC(=O)NC(CN1CCOCC1)[C@H](O)c1ccccc1.Cl (mixture of isomers)
[13]
  mean: 0.5952
[14]
  Replicate_1: 1.232
[15]
  Replicate_2: -0.042

## COC(=O)C(C)(N)Cc1ccc(O)cc1.Cl (racemic)
[1]
  mean: 2.971
[2]
  Replicate_1: 4.293
[3]
  Replicate_2: 1.648

## CCCCCCCCCCCCCCCC(=O)NCC(COP(=O)([O-])OCC[N+](C)(C)C)OCC (racemic)
[10]
  mean: 3.428
[11]
  Replicate_1: 7.48
[12]
  Replicate_2: -0.6245

## CCCCCCCCCCCCCCCCCC(=O)NCC(COP(=O)([O-])OCC[N+](C)(C)C)OCC (racemic)
[1]
  mean: 3.086
[2]
  Replicate_1: 5.031
[3]
  Replicate_2: 1.141

## NC(CP(=O)(O)O)C(=O)O (racemic) [(±)-2-Amino-3-phosphonopropionic acid]
[1]
  mean: 3.099
[2]
  Replicate_1: 4.251
[3]
  Replicate_2: 1.946

## NC(CCP(=O)(O)O)C(=O)O (racemic) [(±)-2-Amino-4-phosphonobutyric acid]
Sheet LOPAC_screen_w_protease, LOPAC1280 at 5 µM, mean of two replicates
  mean: 1.206
Sheet LOPAC_screen_w_protease, LOPAC1280 at 5 µM, replicate 1
  Replicate_1: 2.762
Sheet LOPAC_screen_w_protease, LOPAC1280 at 5 µM, replicate 2
  Replicate_2: -0.351

## NC(CCCP(=O)(O)O)C(=O)O (racemic) [(±)-2-Amino-5-phosphonopentanoic acid]
Mean of two replicates
  mean (LOPAC_screen_w_protease): 1.558
Replicate 1
  Replicate_1 (LOPAC_screen_w_protease): 1.59
Replicate 2
  Replicate_2 (LOPAC_screen_w_protease): 1.526

## NC(CCCCCP(=O)(O)O)C(=O)O (racemic) [(±)-2-Amino-7-phosphonoheptanoic acid]
[10]
  mean: 3.542
[11]
  Replicate_1: 3.653
[12]
  Replicate_2: 3.43

## Br.Oc1cc2c(c(Cl)c1O)CCNCC2c1ccccc1 (racemic) [(±)-6-Chloro-PB hydrobromide]
[16]
  mean (LOPAC screen with protease): 66.2827
[17]
  Replicate_1 (LOPAC screen with protease): 64.3769
[18]
  Replicate_2 (LOPAC screen with protease): 68.1884

## Br.CCCN(CCC)C1CCc2ccc(O)cc2C1 (racemic) [(±)-7-Hydroxy-DPAT hydrobromide]
Mean of two replicates
  mean (LOPAC_screen_w_protease): 1.681
Replicate 1
  Replicate_1 (LOPAC_screen_w_protease): 3.951
Replicate 2
  Replicate_2 (LOPAC_screen_w_protease): -0.5891

## Br.CCCN(CCC)C1CCc2cccc(O)c2C1 (racemic) [(±)-8-Hydroxy-DPAT hydrobromide]
Mean of the two replicates
  mean (LOPAC_screen_w_protease): 1.82
Replicate 1
  Replicate_1 (LOPAC_screen_w_protease): 3.36
Replicate 2
  Replicate_2 (LOPAC_screen_w_protease): 0.2793

## Br.Cc1o[nH]c(=O)c1CC(N)C(=O)O (racemic) [(±)-AMPA hydrobromide]
[7]
  mean: 2.246
[8]
  Replicate_1: 3.765
[9]
  Replicate_2: 0.7264

## CC1CCN=C(N)S1.Cl (racemic) [(±)-AMT hydrochloride]
  Replicate_1: 3.477
  Replicate_2: 0.9466
  mean: 2.212

## NCC(CC(=O)O)c1ccc(Cl)cc1 (racemic) [(±)-Baclofen]
[7]
  mean: 2.345
[8]
  Replicate_1: 1.225
[9]
  Replicate_2: 3.465

## COC(=O)C1=C(C)NC(C)=C([N+](=O)[O-])C1c1ccccc1C(F)(F)F (racemic) [(±)-Bay K 8644]
[1]
  mean: 3.088
[2]
  Replicate_1: 2.534
[3]
  Replicate_2: 3.642

Reference: article PMC7587356, “High-Throughput Screening for Inhibitors of the SARS-CoV-2 Protease Using a FRET-Biosensor” (Molecules, 2020)
